In patent US9896441B2 (Lycera Corporation, priority 2014, dated 2018) one finds EC50 data, which are given here for 21 molecules.

The target in assay [1] is T1, RORγ-LBD (Homo sapiens, UniProt P51449).
T1 construct: made in house; host or cells: SF9 cells (baculovirus); used as diluted lysate
T1 sequence (P51449 269-508 limits assumed): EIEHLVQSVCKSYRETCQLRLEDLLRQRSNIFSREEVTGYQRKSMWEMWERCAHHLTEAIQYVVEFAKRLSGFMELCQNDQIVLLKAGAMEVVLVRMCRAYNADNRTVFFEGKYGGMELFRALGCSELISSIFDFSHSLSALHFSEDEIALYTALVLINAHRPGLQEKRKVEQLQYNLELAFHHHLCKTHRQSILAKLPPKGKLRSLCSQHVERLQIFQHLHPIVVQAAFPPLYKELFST
Put plainly: RORγ-Ligand Binding Domain (LBD) TR-FRET Assay. It is filed as biochemical. As to conditions: RORγ-LBD TR-FRET. In a few lines:
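This TR-FRET coactivator assay pairs baculovirus-expressed His-RORγ-LBD (~3 nM final) with biotin-SRC1 LXXLL peptide at 200 nM final in pH 7.0 Tris/KCl/EDTA/DTT/BSA buffer.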
(In general: Time-resolved FRET reads energy transfer from a long-lived donor to a nearby acceptor.)

The target of assay [2] is T2, Gal4-RORγ-LBD (Homo sapiens, UniProt P51449).
T2 construct: expressed in transfected cells
T2 sequence (P51449 269-508 limits assumed): T1 sequence (P51449 269-508 limits assumed)
In words: Gal4-RORγ Luciferase Reporter Assay in HEK-293T Cells. It is filed as cell-based. Conditions: HEK-293 cells, luciferase reporter, with ursolic acid. In a few lines:
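HEK-293 cells were co-transfected with Gal4-RORγ-LBD and a Gal4-luciferase reporter, then exposed overnight at 37 °C to compounds with […] ursolic acid present (0.2% DMSO). Luminescence was read with One-Glo after 10 min at RT, untreated signal was set as 100, and Max Response was taken as the upper plateau of a 4-parameter logistic fit.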
On the technique in general: Reporter assays use an easily measured gene product as a stand-in for the process of interest.

In general, EC50 refers to the concentration giving half of the maximal effect.

For `O=C(O)CC[C@H]1CN(S(=O)(=O)c2cccc(C(F)(F)F)c2)c2cc(/C=C/c3ncccc3Cl)ccc2O1` [Example 89BK, (S,E)-3-(6-(2-(3-chloropyridin-2-yl)vinyl)-4-((3-(trifluoromethyl)phenyl)sulfonyl)-3,4-dihydro-2H-benzo[b][1,4]oxazin-2-yl)propanoic acid], the EC50 in assay [1] and in assay [2] was less than 500 nM in each case.
As for `Cc1cccc2c1c(/C=C/c1ccc3c(c1)N(S(=O)(=O)c1cccc(C(F)(F)F)c1)C[C@H](CCC(=O)O)O3)nn2C` [Example 89BN, (S,E)-3-(6-(2-(1,4-dimethyl-1H-indazol-3-yl)vinyl)-4-((3-(trifluoromethyl)phenyl)sulfonyl)-3,4-dihydro-2H-benzo[b][1,4]oxazin-2-yl)propanoic acid], the values for the EC50 in assay [1] and in assay [2] were less than 500 nM and 500 to 5000 nM, respectively.
On to `Cn1nc(/C=C/c2ccc3c(c2)N(S(=O)(=O)c2cccc(C(F)(F)F)c2)C[C@H](CCC(=O)O)O3)c2c(Cl)cccc21` [Example 89BO, (S,E)-3-(6-(2-(4-chloro-1-methyl-1H-indazol-3-yl)vinyl)-4-((3-(trifluoromethyl)phenyl)sulfonyl)-3,4-dihydro-2H-benzo[b][1,4]-oxazin-2-yl)propanoic acid], for which the EC50 in assay [1] was less than 500 nM; in assay [2] it was 500 to 5000 nM.
For the molecule `O=C(O)CC[C@H]1CN(S(=O)(=O)c2cccc(C(F)(F)F)c2)c2cc(/C=C/c3cccc(F)c3Cl)ccc2O1` [Example 89BP, (S,E)-3-(6-(2-chloro-3-fluorostyryl)-4-((3-(trifluoromethyl)phenyl)sulfonyl)-3,4-dihydro-2H-benzo[b][1,4]oxazin-2-yl)propanoic acid], the EC50 was less than 500 nM in assay [1] and greater than 10000 nM in assay [2].
As to `COC(=O)CC[C@H]1CN(S(=O)(=O)c2cccc(C(F)(F)F)c2)c2cc(/C=C/c3cccc(F)c3Cl)ccc2O1` [Example 89BQ, (S,E)-methyl 3-(6-(2-chloro-3-fluorostyryl)-4-((3-(trifluoromethyl)phenyl)sulfonyl)-3,4-dihydro-2H-benzo[b][1,4]oxazin-2-yl)propanoate], the concentration giving a half-maximal response (EC50) was less than 500 nM in assay [1] and 500 to 5000 nM in assay [2].
On to `N#Cc1cccc(/C=C/c2ccc3c(c2)N(S(=O)(=O)c2cccc(C(F)(F)F)c2)C[C@H](CCC(=O)O)O3)c1F` [Example 89BW, (S,E)-3-(6-(3-cyano-2-fluorostyryl)-4-((3-(trifluoromethyl)phenyl)sulfonyl)-3,4-dihydro-2H-benzo[b][1,4]oxazin-2-yl)propanoic acid], for which the half-maximal effective concentration (EC50) is less than 500 nM in assay [1] and greater than 10000 nM in assay [2].
Turning to `O=C(O)CC[C@H]1CN(S(=O)(=O)c2cccc(OC(F)F)c2)c2cc(/C=C/c3ccccn3)ccc2O1` [Example 89C, (S,E)-3-(4-((3-(difluoromethoxy)-phenyl)sulfonyl)-6-(2-(pyridin-2-yl)vinyl)-3,4-dihydro-2H-benzo[b][1,4]oxazin-2-yl)propanoic acid], the values for the concentration giving a half-maximal response (EC50) in assay [1] and in assay [2] were 500 to 5000 nM and 5000 to 10000 nM, respectively.
In the case of `Cc1ccc(F)c(/C=C/c2ccc3c(c2)N(S(=O)(=O)c2cccc(C(F)(F)F)c2)C[C@H](CCC(=O)O)O3)c1` [Example 89CA, (S,E)-3-(6-(2-fluoro-5-methylstyryl)-4-((3-(trifluoromethyl)phenyl)sulfonyl)-3,4-dihydro-2H-benzo[b][1,4]oxazin-2-yl)propanoic acid], the EC50 in assay [1] was less than 500 nM; in assay [2], greater than 10000 nM.
For the molecule `O=C(O)CC[C@H]1CN(S(=O)(=O)c2cccc(C(F)(F)F)c2)c2cc(/C=C/c3ccncn3)ccc2O1` [Example 89CC, (S,E)-3-(6-(2-(pyrimidin-4-yl)vinyl)-4-((3-(trifluoromethyl)-phenyl)sulfonyl)-3,4-dihydro-2H-benzo[b][1,4]oxazin-2-yl)propanoic acid], the EC50 in assay [1] and in assay [2] was greater than 10000 nM each time.
Turning to `O=C(O)CC[C@H]1CN(S(=O)(=O)c2cccc(C(F)(F)F)c2)c2cc(/C=C/c3cccnc3Cl)ccc2O1` [Example 89CD, (S,E)-3-(6-(2-(2-chloropyridin-3-yl)vinyl)-4-((3-(trifluoromethyl)-phenyl)sulfonyl)-3,4-dihydro-2H-benzo[b][1,4]oxazin-2-yl)-propanoic acid], the EC50 was less than 500 nM in assay [1] and 500 to 5000 nM in assay [2].
Consider `O=C(O)CC[C@H]1CN(S(=O)(=O)c2cccc(C(F)(F)F)c2)c2cc(/C=C/c3ncccc3F)ccc2O1` [Example 89CE, (S,E)-3-(6-(2-(3-fluoropyridin-2-yl)vinyl)-4-((3-(trifluoromethyl)phenyl)sulfonyl)-3,4-dihydro-2H-benzo[b][1,4]oxazin-2-yl)propanoic acid], for which the half-maximal effective concentration (EC50) was less than 500 nM in assay [1] and 500 to 5000 nM in assay [2].
On to `Cc1cnc(/C=C/c2ccc3c(c2)N(S(=O)(=O)c2cccc(C(F)(F)F)c2)C[C@H](CCC(=O)O)O3)c(F)c1` [Example 89CF, (S,E)-3-(6-(2-(3-fluoro-5-methylpyridin-2-yl)vinyl)-4-((3-(trifluoromethyl)phenyl)sulfonyl)-3,4-dihydro-2H-benzo[b][1,4]-oxazin-2-yl)propanoic acid], for which the EC50 in assay [1] was 500 to 5000 nM; in assay [2], greater than 10000 nM.
With `Cc1ccc(F)c(/C=C/c2ccc3c(c2)N(S(=O)(=O)c2cccc(C(F)(F)F)c2)C[C@H](CCC(=O)O)O3)n1` [Example 89CG, (S,E)-3-(6-(2-(3-fluoro-6-methylpyridin-2-yl)vinyl)-4-((3-(trifluoromethyl)phenyl)sulfonyl)-3,4-dihydro-2H-benzo[b][1,4]-oxazin-2-yl)propanoic acid], the EC50 in assay [1] is less than 500 nM; in assay [2], 5000 to 10000 nM.
Turning to `Cc1ccnc(/C=C/c2ccc3c(c2)N(S(=O)(=O)c2cccc(C(F)(F)F)c2)C[C@H](CCC(=O)O)O3)c1F` [Example 89CH, (S,E)-3-(6-(2-(3-fluoro-4-methylpyridin-2-yl)vinyl)-4-((3-(trifluoromethyl)phenyl)sulfonyl)-3,4-dihydro-2H-benzo[b][1,4]-oxazin-2-yl)propanoic acid], the EC50 in assay [1] is less than 500 nM; in assay [2], greater than 10000 nM.
As for `Cn1nccc1/C=C/c1ccc2c(c1)N(S(=O)(=O)c1cccc(C(F)(F)F)c1)C[C@H](CCC(=O)O)O2` [Example 89CI, (S,E)-3-(6-(2-(1-methyl-1H-pyrazol-5-yl)vinyl)-4-((3-(trifluoromethyl)phenyl)sulfonyl)-3,4-dihydro-2H-benzo[b][1,4]-oxazin-2-yl)propanoic acid], the EC50 in assay [1] and in assay [2] was greater than 10000 nM throughout.
Regarding `Cn1ncnc1/C=C/c1ccc2c(c1)N(S(=O)(=O)c1cccc(C(F)(F)F)c1)C[C@H](CCC(=O)O)O2` [Example 89CJ, (S,E)-3-(6-(2-(1-methyl-1H-1,2,4-triazol-5-yl)vinyl)-4-((3-(trifluoromethyl)phenyl)sulfonyl)-3,4-dihydro-2H-benzo[b][1,4]-oxazin-2-yl)propanoic acid], the EC50 in assay [1] and in assay [2] was greater than 10000 nM in each case.
Turning to `O=C(O)CC[C@H]1CN(S(=O)(=O)c2cccc(C(F)(F)F)c2)c2cc(/C=C/c3cccnc3C(F)(F)F)ccc2O1` [Example 89CK, (S,E)-3-(4-((3-(trifluoromethyl)-phenyl)sulfonyl)-6-(2-(2-(trifluoromethyl)pyridin-3-yl)vinyl)-3,4-dihydro-2H-benzo[b][1,4]oxazin-2-yl)propanoic acid], the figures for the EC50 in assay [1] and in assay [2] were less than 500 nM and 500 to 5000 nM, respectively.
The matching figures for `O=C(O)CC[C@H]1CN(S(=O)(=O)c2cccc(C(F)(F)F)c2)c2cc(/C=C/c3c(Cl)cc(F)cc3Cl)ccc2O1` [Example 89CM, (S,E)-3-(6-(2,6-dichloro-4-fluorostyryl)-4-((3-(trifluoromethyl)phenyl)sulfonyl)-3,4-dihydro-2H-benzo[b][1,4]-oxazin-2-yl)propanoic acid]: less than 500 nM and 500 to 5000 nM.
On to `O=C(O)CC[C@H]1CN(S(=O)(=O)c2cccc(C(F)(F)F)c2)c2cc(/C=C/c3cccc(Cl)c3C(F)(F)F)ccc2O1` [Example 89CO, (S,E)-3-(6-(3-chloro-2-(trifluoromethyl)styryl)-4-((3-(trifluoromethyl)phenyl)sulfonyl)-3,4-dihydro-2H-benzo[b][1,4]oxazin-2-yl)propanoic acid], for which the EC50 was less than 500 nM in assay [1] and 500 to 5000 nM in assay [2].
In the case of `O=C(O)CC[C@H]1CN(S(=O)(=O)c2cccc(C(F)(F)F)c2)c2cc(/C=C/c3cc(F)ccc3C(F)(F)F)ccc2O1` [Example 89CP, (S,E)-3-(6-(5-fluoro-2-(trifluoromethyl)styryl)-4-((3-(trifluoromethyl)phenyl)sulfonyl)-3,4-dihydro-2H-benzo[b][1,4]-oxazin-2-yl)propanoic acid], the EC50 in assay [1] and in assay [2] was less than 500 nM each time.
As for `CCn1cc(S(=O)(=O)N2C[C@H](CCC(=O)O)Oc3ccc(/C=C/c4ncccc4Cl)cc32)c(Cl)n1` [Example 89CQ, (S,E)-3-(4-((3-chloro-1-ethyl-1H-pyrazol-4-yl)sulfonyl)-6-(2-(3-chloropyridin-2-yl)vinyl)-3,4-dihydro-2H-benzo[b][1,4]oxazin-2-yl)propanoic acid], the figures for the EC50 in assay [1] and in assay [2] were less than 500 nM and 500 to 5000 nM, respectively.
